Where “and” joins values, the source holds several entries; their conditions need not be identical. Equal values may be shown once. One block for each compound: values may come before it.
Legend:
[1] = Stability against transmetallation by Zn2+ (time evolution of proton relaxation rate); type: physicochemical; conditions: for Relaxivity retained after transmetallation: 2.5 mM complex with 2.5 mM ZnCl2 in PBS, after 70 h; for y0 of fit y0+A×exp(−t/C1) of proton relaxation rate during transmetallation: Zn(II) ions, PBS, 20 MHz (0.47 T), 36° C., steady state in about 70 h
Description: The stability of the gadolinium complex against various biologically active metal ions is very important in in vivo applications. Among them, only Zn^2+ can displace significant amounts of the Gd^3+ ion as concentration of Zn^2+ in blood is relatively high (55-125 μM/L). The stability of the complexes LGd1-4 against transmetallation by Zn^2+ was studied employing the method of others.
The time evolution of the ^1H longitudinal relaxivity (R1) of a 2.5 mM gadolinium complex with 2.5 mM ZnCl2 in PBS solution was measured. Stability of the amphiphilic complex LGd2 of the present invention was greater than that of the non-aggregated complex LGd1 (FIG. 13). After 70 h, the relaxivities were retained 30, 50, 21, and 12% for LGd1-4, respectively.

[2] = Relaxivity measurements (r1, r2) in PBS solution; type: physicochemical; conditions: for Relaxivity r1: PBS solution, 36° C.
Description: The relaxation efficiency of the newly synthesized amphiphilic MRI contrast agents according to the present invention was determined by measuring longitudinal relaxivity (r1) and transverse relaxivity (r2) at 20 MHZ (0.47 T) and 60 MHz (1.41 T) in phosphate buffered saline (PBS) solution at 36° C.

[3] = Dynamic light scattering (DLS) of micelles; type: physicochemical; conditions: for DLS PDI of micelles / DLS average size of micelles: FIGS. 6 to 9; for DLS average size of micelles: pH 7.4
[4] = target: T1, human serum albumin (HSA) (Homo sapiens, UniProt P02768); assay: Interaction with human serum albumin (relaxivity with HSA, binding constant); conditions: 36° C.; for Relaxivity r1^a (with HSA): PBS solution with 0.65 mM HSA; for Effective interaction with HSA (R1/R1^0): 50 μM complex, HSA below 1.0 mM
T1 construct: purchased Sigma (Bornem, Belgium) A3782
T1 sequence (P02768 25-609): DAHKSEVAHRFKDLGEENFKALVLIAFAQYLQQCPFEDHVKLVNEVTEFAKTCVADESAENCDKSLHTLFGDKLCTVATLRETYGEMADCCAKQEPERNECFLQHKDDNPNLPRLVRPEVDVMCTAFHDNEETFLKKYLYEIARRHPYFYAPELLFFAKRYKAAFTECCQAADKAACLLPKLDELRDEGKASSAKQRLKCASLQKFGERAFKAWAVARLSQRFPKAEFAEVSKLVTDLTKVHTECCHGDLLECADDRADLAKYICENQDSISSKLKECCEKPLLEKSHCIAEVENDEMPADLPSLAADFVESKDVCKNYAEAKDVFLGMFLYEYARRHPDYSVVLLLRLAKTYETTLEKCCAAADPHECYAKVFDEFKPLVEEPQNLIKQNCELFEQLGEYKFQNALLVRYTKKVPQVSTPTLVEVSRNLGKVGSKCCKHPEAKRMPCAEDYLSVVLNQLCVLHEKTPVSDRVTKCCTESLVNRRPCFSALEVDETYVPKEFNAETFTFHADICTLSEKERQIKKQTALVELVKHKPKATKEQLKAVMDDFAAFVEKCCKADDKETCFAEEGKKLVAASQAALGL
Excerpt: It is well known that non-covalent interaction of the contrast agent with human serum albumin (HSA) increases its circulation time in blood and slows down tubling rate, leading to greater contrast enhancement for blood vessel imaging. In this example, effective interaction between the newly synthesized contrast agents (CAs) and human serum albumin (HSA) were investigated.
Human serum albumin (HSA; Product No. A3782) was purchased from Sigma (Bornem, Belgium) and was used without further purification. HSA binding experiment was performed with 50 μM of the complexes LGd1-5 in PBS solution depending on the concentration of HSA from 0 to 4 mM at 20 MHz and 36° C.
The increment of R1/R1^0 with increasing aliphatic chain length is: LGd2>LGd3>LGd4>LGd5.
Furthermore, to know the non-covalent binding strength between HSA and the complex, a binding constant (Ka) of (3.34±0.28)×10^3 M^−1 for the complex LGd3 was determined using the theoretical equation reported in the reference (D. T. Schuhle, J. Schatz, S. Laurent, L. V. Elst, R. N. Muller, M. C. A. Stuart, J. A. Peters, Chem. Eur. J. 2009, 15, 3290). The relaxivity for the non-aggregate form of LGd3 (r1^f) was measured to be 18.5 mM^−1s^−1 (below CMC=50 μM; FIG. 10), while for adduct LGd3.HSA (r1^c), 41.0 mM^−1s^−1 at 36° C. and 20 MHz (0.47 T) in PBS solution. […] As a result, the complex LGd3 of the present invention could be retained in vivo for a longer time.

[5] = clinical liver-specific contrast agents; cited from earlier work
[6] = clinically used commercial T1 contrast agents, comparison values; cited from earlier work
[7] = pH dependence of water 1H relaxivity; type: physicochemical
Description: The relaxivities of the non-aggregated complex LGd1 and the most aggregated complex LGd3 (FIG. 7, average diameter […]) were investigated at various pH values (3.5-11) at 60 MHz (1.41 T) and 36° C.
The pH dependence of water ^1H-NMR relaxivity r1 was obtained at 60 MHz and 36° C. The complexes LGd1 and LGd3 were dissolved in previously prepared stock solutions (StockOptions pH Screen, Hampton Research, USA) at pH 3.5-11.

[8] = Critical micelle concentration from 1/T1 versus concentration; type: physicochemical; conditions: FIG. 10
Description: Longitudinal and transverse relaxivities, r1 and r2, were measured at 20 MHz (0.47 T) and 60 MHz (1.41 T) at 36° C. on NMR (mq20 and mq60, Bruker, Germany) and animal MRI (Biospec 47/40, Bruker, Germany) systems. T1 and T2 relaxation times were measured with inversion recovery and spin-echo pulse sequences, respectively. The critical micelle concentration (cmc) of the complex LGd3 was determined by measuring the proton relaxation rate 1/T1 as a function of complex LGd3 concentration.

[9] = Contrast-enhanced dynamic MRI in mice (CNR in liver and blood); type: in vivo, Balb/C mice
Description: The whole-body pharmacokinetics of T1 contrast agents can be measured by dynamic 2D or 3D MR imaging.
5-Week-old male Balb/C mice (n=3; OrientBio, Korea) were used for contrast-enhanced dynamic MRI. MRI was performed by using a 4.7 T MRI system (BioSpec 47/40; Bruker, Germany) with a quadrature birdcage RF coil (35 mm inner diameter) for signal transmission and reception.
Bolus of the contrast agents (0.1 mmol Gd/kg) was injected via tail vein. During MRI acquisition, the animals were anesthetized using 1-1.25% of inhalational isoflurane with O2:N2O (3:7) mixture.
To quantitatively measure signal intensity in region-of-interests (ROIs) as contrast-noise ratio (CNR), a reference of water sample (1 g/l CuSO4 in 8:2 of D2O:H2O) in a cylindrical tube (5 mm diameter) was used.
Dynamic 2D T1-weighted images were acquired using a spin-echo (SE) pulse sequence with the following parameters: TE/TR=10/400 ms, number of average=4, matrix size=256×256, slice thickness=1 mm, field of view=30×30 mm^2 (in axial slice) or 50×30 mm^2 (in coronal slice), and scan time=6 min 50 s).
Dynamic 3D T1-weighted images were acquired using a fast low angle shot gradient echo (FLASH) pulse sequence with parameters of TE/TR=2.4/7.5 ms, number of average=4, flip angle=30°, field of view=30×30×20 mm^3, matrix size=256×256×128, and scan time=12 min 17 s.

Structure (SMILES): CCOc1ccc(CC(CN(CCN(CC(=O)[O-])CC(=O)[O-])CC(=O)[O-])N(CC(=O)[O-])CC(=O)[O-])cc1.[Gd+3].[Na+].[Na+] (stereo not drawn) [Primovist®, Gd-EOB-DTPA]
Hepatic excretion [5]: 50%
Renal excretion [5]: 50%

Structure (SMILES): O=C([O-])CN(CCN(CCN(CC(=O)[O-])CC(=O)[O-])C[C@H]1O[C@@H](n2ccc(=O)[nH]c2=O)[C@H](O)[C@@H]1O)CC(=O)[O-].[Gd+3] [LGd1]
Relaxivity retained after transmetallation [1]: 30%
y0 of fit y0+A×exp(−t/C1) of proton relaxation rate during transmetallation [1]: 0.30
Relaxivity r1 ([2]; 20 MHz (0.47 T)): 5.10 mM⁻¹ s⁻¹
Relaxivity r1 ([2]; 60 MHz (1.41 T)): 4.17 mM⁻¹ s⁻¹
Relaxivity over the given pH range ([7]; pH 3.5-11, 60 MHz (1.41 T), 36° C.): 5.0±0.1 mM^−1s^−1 and 5.0±0.6 mM^−1s^−1
Decrease of relaxivity at alkaline pH ([7]; pH 11, 60 MHz, 36° C.): about 10%
Relaxivity r1^a (with HSA) ([4]; 20 MHz (0.47 T)): 5.62 mM⁻¹ s⁻¹

Structure (SMILES): CNC[C@H](O)[C@@H](O)[C@H](O)[C@H](O)CO.CNC[C@H](O)[C@@H](O)[C@H](O)[C@H](O)CO.O=C([O-])CN(CCN(CC(=O)[O-])CC(=O)O)CCN(CC(=O)O)C(COCc1ccccc1)C(=O)[O-].[Gd+3] (stereo not drawn) [Multihance®, Gd-BOPTA]
Hepatic excretion [5]: 4%
Renal excretion [5]: 96%

Structure (SMILES): O=C([O-])CN(CCN(CC(=O)[O-])CC(COP(=O)([O-])OC1CCC(c2ccccc2)(c2ccccc2)CC1)N(CC(=O)[O-])CC(=O)[O-])CC(=O)[O-].[Gd+3].[Na+].[Na+].[Na+] (stereo not drawn) [Vasovist®, diphenylcyclohexyl phosphodiester-Gd-DTPA]
Hepatic excretion [5]: 8%
Renal excretion [5]: 91%

Further lines, with some results ahead:

Relaxivity retained after transmetallation [1]: 12%
y0 of fit y0+A×exp(−t/C1) of proton relaxation rate during transmetallation [1]: 0.12
Relaxivity r1 ([2]; 20 MHz (0.47 T)): 27.10 mM⁻¹ s⁻¹
Relaxivity r1 ([2]; 60 MHz (1.41 T)): 16.50 mM⁻¹ s⁻¹
DLS PDI of micelles [3]: 1.12
DLS average size of micelles [3]: 50.16 nm
Relaxivity r1^a (with HSA) ([4]; 20 MHz (0.47 T)): 38.50 mM⁻¹ s⁻¹
Structure (SMILES): CCCCCCCCCCCC(=O)O[C@@H]1[C@H](OC(=O)CCCCCCCCCCC)[C@@H](CN(CCN(CC(=O)[O-])CC(=O)[O-])CCN(CC(=O)[O-])CC(=O)[O-])O[C@H]1n1ccc(=O)[nH]c1=O.[Gd+3] [LGd4]

Relaxivity r1 ([2]; 20 MHz (0.47 T)): 4.70 mM⁻¹ s⁻¹
Relaxivity r1 ([2]; 60 MHz (1.41 T)): 3.81 mM⁻¹ s⁻¹
Structure (SMILES): CNC[C@H](O)[C@@H](O)[C@H](O)[C@H](O)CO.CNC[C@H](O)[C@@H](O)[C@H](O)[C@H](O)CO.O=C([O-])CN(CCN(CC(=O)[O-])CC(=O)O)CCN(CC(=O)[O-])CC(=O)O.[Gd+3] [Magnevist ®, Gd-DTPA, reference compound]
Relaxivity retained after transmetallation (commercial contrast agents) [6]: 50%

Relaxivity retained after transmetallation [1]: 50%
y0 of fit y0+A×exp(−t/C1) of proton relaxation rate during transmetallation [1]: 0.50
Relaxivity r1 ([2]; 20 MHz (0.47 T)): 14.70 mM⁻¹ s⁻¹
Relaxivity r1 ([2]; 60 MHz (1.41 T)): 12.40 mM⁻¹ s⁻¹
DLS PDI of micelles [3]: 0.986
DLS average size of micelles [3]: 6.78 nm
Effective interaction with HSA (R1/R1^0) ([4]; 20 MHz): high
Relaxivity r1^a (with HSA) ([4]; 20 MHz (0.47 T)): 31.90 mM⁻¹ s⁻¹
Structure (SMILES): CCCCCCCC(=O)O[C@@H]1[C@H](OC(=O)CCCCCCC)[C@@H](CN(CCN(CC(=O)[O-])CC(=O)[O-])CCN(CC(=O)[O-])CC(=O)[O-])O[C@H]1n1ccc(=O)[nH]c1=O.[Gd+3] [LGd2]

Relaxivity r1 ([2]; 20 MHz (0.47 T)): 20.10 mM⁻¹ s⁻¹
Relaxivity r1 ([2]; 60 MHz (1.41 T)): 17.20 mM⁻¹ s⁻¹
DLS PDI of micelles [3]: 1.14
DLS average size of micelles [3]: 24.74 nm
Relaxivity r1^a (with HSA) ([4]; 20 MHz (0.47 T)): 26.40 mM⁻¹ s⁻¹
Structure (SMILES): CCCCCCCCCCCCCC(=O)O[C@@H]1[C@H](OC(=O)CCCCCCCCCCCCC)[C@@H](CN(CCN(CC(=O)[O-])CC(=O)[O-])CCN(CC(=O)[O-])CC(=O)[O-])O[C@H]1n1ccc(=O)[nH]c1=O.[Gd+3] [LGd5]

Relaxivity retained after transmetallation [1]: 21%
y0 of fit y0+A×exp(−t/C1) of proton relaxation rate during transmetallation [1]: 0.21
Relaxivity r1 ([2]; 20 MHz (0.47 T)): 30.3 mM⁻¹ s⁻¹ and 30.30 mM⁻¹ s⁻¹
Relaxivity r1 ([2]; 60 MHz (1.41 T)): 23.4 mM⁻¹ s⁻¹ and 23.40 mM⁻¹ s⁻¹
Relaxivity increase compared to Magnevist/Omniscan (Gd-DTPA, Gd-DTPA-BMA) ([2]; PBS, 0.47 T and 1.41 T): 6 fold
Average diameter (FIG. 7) as printed in nm ([3]; FIG. 7): 51.2 nm
DLS PDI of micelles at alkaline pH ([3]; FIG. 12, pH 10.5): 2.01
DLS PDI of micelles [3]: 1.46
DLS average size of micelles [3]: 51.16 nm and 51.15 nm
Critical micelle concentration (CMC) ([8]; 20 MHz, 36° C.): about 0.05 mM
Critical micelle concentration (CMC) [8]: 50 µM
Relaxivity variation Δr1 between pH 6 and 7.5 ([7]; 60 MHz, 36° C.): ~2.9
Relaxivity variation Δr1 from pH 8 to pH 11 ([7]; 60 MHz, 36° C.): ~10.3
Relaxivity at pH 8 ([7]; pH 8, 60 MHz (1.41 T), 36° C.): about 24.5 mM^−1s^−1
Relaxivity at pH 10.5 ([7]; pH 10.5): about 17.3 mM^−1s^−1
Relaxivity at pH 11 ([7]; pH 11, 60 MHz (1.41 T), 36° C.): 14.2 mM^−1s^−1
Time of bright contrast enhancement in gall bladder after injection ([9]; 0.1 mmol Gd/kg i.v., 2D MR images): 2 to 4 h
Effective interaction with HSA (R1/R1^0) ([4]; 20 MHz): high
Relaxivity r1^a (with HSA) ([4]; 20 MHz (0.47 T)): 41.0 mM⁻¹ s⁻¹ and 41.00 mM⁻¹ s⁻¹
Relaxivity of adduct with HSA (r1^c) ([4]; adduct LGd3.HSA, 20 MHz (0.47 T), PBS): 41.0 mM⁻¹ s⁻¹
Relaxivity of the non-aggregate form (r1^f) ([4]; below CMC, 20 MHz (0.47 T), PBS): 18.5 mM⁻¹ s⁻¹
Binding constant (Ka) with HSA ([4]; non-covalent binding, theoretical equation, 20 MHz, PBS): (3.34±0.28)×10^3 M^−1
Structure (SMILES): CCCCCCCCCC(=O)O[C@@H]1[C@H](OC(=O)CCCCCCCCC)[C@@H](CN(CCN(CC(=O)[O-])CC(=O)[O-])CCN(CC(=O)[O-])CC(=O)[O-])O[C@H]1n1ccc(=O)[nH]c1=O.[Gd+3] [LGd3]
Duration of hyperintense CNR in liver (delayed hepatobiliary phase) ([9]; 0.1 mmol Gd/kg i.v.): at least 11 h
Peak and plateau enhancement in liver parenchyma ([9]; 0.1 mmol Gd/kg i.v., CNR in liver from 1.67 to 4.0): about 240%
Liver parenchyma enhancement versus same dose of Gd-DTPA-BMA ([9]; 0.1 mmol Gd/kg, 3D dynamic images): more intense and prolonged enhancement
CNR in liver at 11 h above pre-value ([9]; 0.1 mmol Gd/kg, 11 h after injection): about 60%
T1-contrasted enhancement in liver parenchyma, caudal vena cava and kidney ([9]; 30 min after injection, 0.1 mmol Gd/kg): markedly seen
SI in liver compared with pre-injection value ([9]; 9 h after injection): still relatively high
Duration of plateau-like constant CNR in liver ([9]; after maximum at about 2 h post-injection): about 2 h
Peak CNR in liver ([9]; i.v. injection, 4.7 T): 4.0

From patent US9290535B2, “Uridine-based gadolinium complex and MRI contrast agent including the same” (Korea University Researchand Business Foundation, priority 2011, dated 2016)
